Data published in patent publication EP1873155A1, “Inhibitors of the HIV integrase enzyme” (PFIZER INC., priority 2004, dated 2005).

Molecular target: HIV-1 integrase
Experiment: Integrase strand-transfer scintillation proximity assay
Format: biochemical
Settings: full-length wild type HIV-1 integrase (SF1), 50 min at 37°C
Experimental: The annealed product represents preprocessed viral ds-DNA derived from the LTR U5 sequence of the viral genome.
The radiolabeled product was purified using a NENSORB cartridge and stored in stabilized aqueous solution (PerkinElmer).
White, polystyrene, flat-bottom, non-binding surface, 96-well plates were purchased from Corning.
Supernant was discarded and pellet resuspended in 50 mM HEPES pH 7.0, 750 mM NaCl, 5 mM DTT, 1 mM AEBSF and homogenized in a 40 mL Dounce homogenizer for 20 minutes on ice. […] Supernant was discarded and pellet resuspended in 50 mM HEPES pH 7.0, 750 mM NaCl, 25 mM CHAPS, 5 mM DTT, 1 mM AEBSF.
Supernant was then diluted 1:1 with 50 mM HEPES pH 7.0, 25 mM CHAPS, 1 mM DTT, 1 mM AEBSF and loaded onto a Q-Sepharose column pre-equilibrated with 50 mM HEPES, pH 7.0, 375 mM NaCl, 25 mM CHAPS, 1 mM DTT, 1 mM AEBSF. The flow through peak was collected and NaCl diluted to 0.1 M with 50 mM HEPES pH 7.0, 25 mM CHAPS, 1 mM DTT, 0.5 mM AEBSF and loaded onto a SP-Sepharose column pre-equilibrated with 50 mM HEPES pH 7.0, 100 mM NaCl, 25 mM CHAPS, 1 mM DTT, 0.5 mM AEBSF. After washing the column with the equilibration buffer, a 100 to 400 mM NaCl gradient was run. The eluted integrase was concentrated and run on a S-300 gel diffusion column using 50 mM HEPES pH 7.0, 500 mM NaCl, 25 mM CHAPS, 1 mM DTT, 0.5 mM AEBSF. […]

Compared with “1-[({[(4R)-2,2-dimethyl-1,3-dioxolan-4-yl]methyl}amino)meth yl]-3-(4-fluorobenzyl)-7-hydroxy-3,7-dihydro-6H-pyrrolo[2,3-c]-1,7-naphthyridin-6-one [Example 35]”, “(3R)-1-{[3-(4-fluorobenzyl)-7-hydroxy-6-oxo-6,7-dihydro-3H-pyrrolo[2,3-c]-1,7-naphthyridin-1-yl]methyl)-N,N-dimethylpyrrolidine-3-carboxamide [Example 17]” is 5-fold lower in IC50: 45 nM for the first, 9 nM for the second. The second is the more potent here.

Test system: RF strain of HIV-1
Experiment: HIV-1 cell protection assay (XTT dye reduction)
Format: cell-based
Settings: Human immunodeficiency virus 1, CEM-SS, 144 h, CEM-SS cells infected with HIV-1 RF, six days, XTT formazan; read-out: EC50
Experimental: Example 61: HIV-1 Cell Protection Assay
The antiviral activities of potential modulator compounds (test compounds) were determined in HIV-1 cell protection assays using the RF strain of HIV-1, CEM-SS cells, and the XTT dye reduction method (Weislow, O.S. et al., J. Natl. Cancer Inst. 81: 577-586 (1989)). Subject cells were infected with HIV-1 RF virus at an moi of 0.025 to 0.819 or mock infected with medium only and added at 2 x 10^4 cells per well into 96 well plates containing half-log dilutions of test compounds. Six days later, 50 µl of XTT solution (1 mg/ml XTT tetrazolium and […] phenazine methosulfate) were added to the wells and the plates were reincubated for four hours. Viability, as determined by the amount of XTT formazan produced, was quantified spectrophotometrically by absorbance at 450 nm.
Data from CPE assays were expressed as the percent of formazan produced in compound-treated cells compared to formazan produced in wells of uninfected, compound-free cells. […] The therapeutic index was calculated by dividing the cytotoxicity (CC50) by the antiviral activity (EC50).

Going from `O=c1c2ncc3c(c(COCCOC4CCCCC4)cn3Cc3ccc(F)cc3)c2ccn1O` [Example 34, 1-{[2-(cyclohexyloxy)ethoxy]methyl}-3-(4-fluorobenzyl)-7-hydroxy-3,7-dihydro-6H-pyrrolo[2,3-c]-1,7-naphthyridin-6-one] to `COCCOCc1cn(Cc2ccc(F)cc2)c2cnc3c(=O)n(O)ccc3c12` [Example 36, 3-(4-fluorobenzyl)-7-hydroxy-1-[(2-methoxyethoxy)methyl]-3,7-dihydro-6H-pyrrolo[2,3-c]-1,7-naphthyridin-6-one], the EC50 falls from 2 nM to 0.4 nM (5-fold). The second is the more potent here.

Compared with `O=c1c2ncc3c(c(COC4CCOCC4)cn3Cc3ccc(F)cc3)c2ccn1O` [Example 37, 3-(4-fluorobenzyl)-7-hydroxy-1-[(tetrahydro-2H-pyran-4-yloxy)methyl]-3,7-dihydro-6H-pyrrolo[2,3-c]-1,7-naphthyridin-6-one], `O=c1c2ncc3c(c(CN4CCOCC4)cn3Cc3ccc(F)cc3)c2ccn1O` [Example 57, 3-(4-fluorobenzyl)-7-hydroxy-1-(morpholin-4-ylmethyl)-3,7-dihydro-6H-pyrrolo[2,3-c]-1,7-naphthyridin-6-one] is 3.1-fold lower in EC50: 1 nM for the first, 0.32 nM for the second.

Going from `O=c1c2ncc3c(c(CNC4(CO)CCCC4)cn3Cc3ccc(F)cc3)c2ccn1O` [Example 39, 3-(4-fluorobenzyl)-7-hydroxy-1-({[1-(hydroxymethyl)cyclopentyl]amino}methyl)-3,7-dihydro-6H-pyrrolo[2,3-c]-1,7-naphthyridin-6-one] to `O=c1c2ncc3c(c(CN4CCCCC4CO)cn3Cc3ccc(F)cc3)c2ccn1O` (centres unmarked) [Example 49, 3-(4-fluorobenzyl)-7-hydroxy-1-{[2-(hydroxymethyl)piperidin-1-yl]methyl}-3,7-dihydro-6H-pyrrolo[2,3-c]-1,7-naphthyridin-6-one], the EC50 rises from 4 nM to 14 nM (3.5-fold).

Compared with `CCCNCc1cn(Cc2ccc(F)cc2)c2cnc3c(=O)n(O)ccc3c12` [Example 40, 3-(4-fluorobenzyl)-7-hydroxy-1-[(propylamino)methyl] -3,7-dihydro-6H-pyrrolo[2,3-c]-1,7-naphthyridin-6-one], `CCCN(CCO)Cc1cn(Cc2ccc(F)cc2)c2cnc3c(=O)n(O)ccc3c12` [Example 48, 3-(4-fluorobenzyl)-7-hydroxy-1-{[(2-hydroxyethyl)(propyl)amino]methyl}-3,7-dihydro-6H-pyrrolo[2,3-c]-1,7-naphthyridin-6-one] is 1.7-fold lower in EC50: 2 nM for the first, 1.2 nM for the second. The second is the more potent here.

Compared with `Cc1cccc(CNCc2cn(Cc3ccc(F)cc3)c3cnc4c(=O)n(O)ccc4c23)c1` [Example 41, 3-(4-fluorobenzyl)-7-hydroxy-1-{[(3-methylbenzyl)amino]methyl}-3,7-dihydro-6H-pyrrolo[2,3-c]-1,7-naphthyridin-6-one], `O=c1c2ncc3c(c(CNCc4ccccn4)cn3Cc3ccc(F)cc3)c2ccn1O` [Example 44, 3-(4-fluorobenzyl)-7-hydroxy-1-{[(pyridin-2-ylmethyl)amino]methyl}-3,7-dihydro-6H-pyrrolo[2,3-c]-1,7-naphthyridin-6-one] is 4.1-fold lower in EC50: 3 nM for the first, 0.74 nM for the second. The second is the more potent here.

Going from `Cc1cnc(CNCc2cn(Cc3ccc(F)cc3)c3cnc4c(=O)n(O)ccc4c23)cn1` [Example 42, 3-(4-fluorobenzyl)-7-hydroxy-1-({[(5-methylpyrazin-2-yl)methyl]amino}methyl)-3,7-dihydro-6H-pyrrolo[2,3-c]-1,7-naphthyridin-6-one] to `O=c1c2ncc3c(c(CNCc4ccc(C(F)(F)F)cc4)cn3Cc3ccc(F)cc3)c2ccn1O` [Example 43, 3-(4-fluorobenzyl)-7-hydroxy-1-({[4-(trifluoromethyl)benzyl]amino)methyl)-3,7-dihydro-6H-pyrrolo[2,3-c]-1,7-naphthyridin-6-one], the EC50 falls from 3 nM to 0.8 nM (3.8-fold). The second is the more potent here.

Compared with `O=C1c2ncc3c(ccn3Cc3ccc(F)cc3)c2CCCN1O` [Example 45, 3-(4-fluorobenzyl)-7-hydroxy-7,8,9,10-tetrahydropyrrolo[3',2' :4,5]pyrido[2,3-c]azepin-6(3H)-one], `Cc1cc2c(ncc3c2ccn3Cc2ccc(F)cc2)c(=O)n1O` [Example 47, 3-(4-fluorobenzyl)-7-hydroxy-8-methyl-3,7-dihydro-6H-pyrrolo[2,3-c]-1,7-naphthyridin-6-one] is 87-fold lower in EC50: 20 nM for the first, 0.23 nM for the second. The second is the more potent here.

`CCCCc1cc2c(ncc3c2ccn3Cc2ccc(F)cc2)c(=O)n1O` [Example 46, 8-butyl-3-(4-fluorobenzyl)-7-hydroxy-3,7-dihydro-6H-pyrrolo[2,3-c]-1,7-naphthyridin-6-one] and `CCN(CC)CCN(CC)Cc1cn(Cc2ccc(F)cc2)c2cnc3c(=O)n(O)ccc3c12` [Example 50, 1-{[[2-(diethylamino)ethyl](ethyl)amino]methyl}-3-(4-fluorobenzyl)-7-hydroxy-3,7-dihydro-6H-pyrrolo[2,3-c]-1,7-naphthyridin-6-one] are within 1.5-fold of each other in EC50: 9.6 nM for the first, 8.6 nM for the second.

Compared with `CCN(Cc1ccc(C)cc1)Cc1cn(Cc2ccc(F)cc2)c2cnc3c(=O)n(O)ccc3c12` [Example 51, 1-{[ethyl(4-methylbenzyl)amino]methyl}-3-(4-fluorobenzyl)-7-hydroxy-3,7-dihydro-6H-pyrrolo[2,3-c]-1,7-naphthyridin-6-one], `CN(Cc1ccccc1)Cc1cn(Cc2ccc(F)cc2)c2cnc3c(=O)n(O)ccc3c12` [Example 54, 1-{[benzyl(methyl)amino]methyl}-3-(4-fluorobenzyl)-7-hydroxy-3,7-dihydro-6H-pyrrolo[2,3-c]-1,7-naphthyridin-6-one] is 3.1-fold lower in EC50: 1.3 nM for the first, 0.42 nM for the second. The second is the more potent here.

First: CCS(=O)(=O)N1CCN(Cc2cn(Cc3ccc(F)cc3)c3cnc4c(=O)n(O)ccc4c23)CC1 [Example 52, 1-{[4-(ethylsulfonyl)piperazin-1-yl]methyl}-3-(4-fluorobenzyl)-7-hydroxy-3,7-dihydro-6H-pyrrolo[2,3-c]-1,7-naphthyridin-6-one]
Second: O=c1c2ncc3c(c(CN4CCC(O)CC4)cn3Cc3ccc(F)cc3)c2ccn1O [Example 53, 3-(4-fluorobenzyl)-7-hydroxy-1-[(4-hydroxypiperidin-1-yl)methyl]-3,7-dihydro-6H-pyrrolo[2,3-c]-1,7-naphthyridin-6-one]
The EC50 of the first is 8.1-fold lower: 1.6 nM for the first, 13 nM for the second.

Compared with `O=c1c2ncc3c(c(CN4CCN5C[C@H](O)CC5C4)cn3Cc3ccc(F)cc3)c2ccn1O` (stereo partly drawn) [Example 55, 3-(4-fluorobenzyl)-7-hydroxy-1-{[(7R)-7-hydroxyhexahydropyrrolo[1,2-a]pyrazin-2(1 H)-yl]methyl}-3,7-dihydro-6H-pyrrolo[2,3-c]-1,7-naphthyridin-6-one], `O=C1NC[C@@H]2CCN(Cc3cn(Cc4ccc(F)cc4)c4cnc5c(=O)n(O)ccc5c34)C[C@H]12` [Example 56, 3-(4-fluorobenzyl)-7-hydroxy-1-{[(3aR,7aR)-3-oxooctahydro-5H-pyrrolo[3,4-c]pyridin-5-yl]methyl}-3,7-dihydro-6H-pyrrolo[2,3-c]-1,7-naphthyridin-6-one] is 4.9-fold lower in EC50: 69 nM for the first, 14 nM for the second.

First: O=c1c2ncc3c(c(CN4CCN(CCN5CCOCC5)CC4)cn3Cc3ccc(F)cc3)c2ccn1O [Example 58, 3-(4-fluorobenzyl)-7-hydroxy-1-{[4-(2-morpholin-4-ylethyl)piperazin-1-yl]methyl}-3,7-dihydro-6H-pyrrolo[2,3-c]-1,7-naphthyridin-6-one]
Second: CN(Cc1cnn(-c2ccccc2)c1)Cc1cn(Cc2ccc(F)cc2)c2cnc3c(=O)n(O)ccc3c12 [Example 59, 3-(4-fluorobenzyl)-7-hydroxy-1-({methyl[(1-phenyl-1 H-pyrazol-4-yl)methyl]amino}methyl)-3,7-dihydro-6H-pyrrolo[2,3-c]-1,7-naphthyridin-6-one]
The EC50 of the first is 43-fold higher: 32 nM for the first, 0.74 nM for the second. The second is the more potent here.
